According to the supplement of paper PMC10627819:

Experiments:
S. pneumoniae D39V [1] = assay: Bliss interaction score (quartile over a dose matrix) (fitness difference); higher = more antagonism (negative = synergy)
Method in brief: (§1)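 Growth in each well was taken as OD595 at entry into stationary phase. Dividing by the plate's robust no-drug mean and capping at 1 gave fitness, and single-drug fitness was inferred from the combination data. The Bliss score, observed minus product-expected fitness, is summarised by quartiles over technical, biological and donor/recipient replicates.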

S. aureus Newman [2] = assay: as above
Method in brief: as §1

B. subtilis 168 [3] = assay: as above
Method in brief: as §1

S. aureus DSM 20231 [4] = assay: as above
Method in brief: as §1

S. pneumoniae D39V [5] = assay: fitness (endpoint OD595 vs no drug) (fraction); higher = more growth
Method in brief: (§2)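 Volumes were 30 µl per well, or 55 µl for S. pneumoniae, in 384-well plates inoculated at OD595 0.01. Media were TSB, LB Lennox or CY at 37 °C, and OD595 was read every 30 min for 14 h with first-reading background subtraction. Fitness is the ratio of optical density at stationary-phase entry to the robust mean of no-drug controls. That ratio is capped at 1.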

S. aureus Newman [6] = assay: as above
Method in brief: as §2

B. subtilis 168 [7] = assay: as above
Method in brief: as §2

S. aureus DSM 20231 [8] = assay: as above
Method in brief: as §2
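For Bliss interaction score (quartile over a dose matrix) in this document: first quartile when negative (synergy) and third quartile when positive (antagonism).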

C[n+]1ccc(-c2cc[n+](C)cc2)cc1 [Paraquat] + CC1=C\[C@@H](O)CC(=O)Cc2nc(co2)C(=O)N2CCC=C2C(=O)O[C@H](C(C)C)[C@H](C)/C=C/C(=O)NC\C=C\1 [Virginiamycin M1]
Settings | Bliss interaction score
B. subtilis 168 [3] | 0.0473
S. aureus DSM 20231 [4] | 0.0744
S. aureus Newman [2] | 0.0334
S. pneumoniae D39V [1] | -0.0275

fitness, one replicate
Settings | first compound 1.25 µg/mL | first compound 1.5 µg/mL | first compound 2.5 µg/mL | first compound 3 µg/mL | first compound 5 µg/mL | first compound 6 µg/mL
S. aureus DSM 20231 [8], partner 0.5 µg/mL | 0.831 | – | 0.901 | – | 0.858 | –
S. aureus DSM 20231 [8], partner 1 µg/mL | 0.781 | – | 0.848 | – | 0.898 | –
S. aureus Newman [6], partner 0.0625 µg/mL | 0.883 | – | 0.93 | – | 0.863 | –
S. aureus Newman [6], partner 0.125 µg/mL | 0.885 | – | 0.934 | – | 0.894 | –
S. aureus Newman [6], partner 0.25 µg/mL | 0.868 | – | 0.9 | – | 0.929 | –
S. aureus Newman [6], partner 0.5 µg/mL | 0.862 | – | 0.852 | – | 0.908 | –
S. aureus Newman [6], partner 1 µg/mL | 0.949 | – | 0.959 | – | 0.971 | –
S. aureus Newman [6], partner 2 µg/mL | 0.862 | – | 0.848 | – | 0.855 | –
S. pneumoniae D39V [5], partner 0.15 µg/mL | – | ≥ 1 | – | ≥ 1 | – | 0.975
S. pneumoniae D39V [5], partner 0.3 µg/mL | – | ≥ 1 | – | ≥ 1 | – | 0.948

fitness
Settings | first compound 1.25 µg/mL | first compound 1.5 µg/mL | first compound 2.5 µg/mL | first compound 3 µg/mL | first compound 5 µg/mL | first compound 6 µg/mL
B. subtilis 168 [7], partner 0.0625 µg/mL | 0.951 | – | 0.934 | – | 0.819 | –
B. subtilis 168 [7], partner 0.125 µg/mL | 0.918 | – | 0.934 | – | 0.856 | –
B. subtilis 168 [7], partner 0.25 µg/mL | 0.93 | – | 0.95 | – | 0.893 | –
S. aureus DSM 20231 [8], partner 0.0625 µg/mL | 0.912 | – | 0.897 | – | 0.872 | –
S. aureus DSM 20231 [8], partner 0.125 µg/mL | 0.967 | – | 0.981 | – | 0.936 | –
S. aureus DSM 20231 [8], partner 0.25 µg/mL | 0.935 | – | 0.882 | – | 0.934 | –
S. pneumoniae D39V [5], partner 0.5 µg/mL | – | 0.987 | – | 0.988 | – | 0.991
S. pneumoniae D39V [5], partner 1 µg/mL | – | 0.991 | – | 0.978 | – | 0.967
S. pneumoniae D39V [5], partner 2 µg/mL | – | 0.937 | – | 0.93 | – | 0.897

Cn1c2cccc(=O)c-2nc2ccccc21 [Pyocyanin] + Cc1cc(NS(=O)(=O)c2ccc(N)cc2)no1 [Sulfamethoxazol]
Settings | Bliss interaction score
B. subtilis 168 [3] | -0.063
S. aureus DSM 20231 [4] | 0.0564
S. aureus Newman [2] | -0.0714
S. pneumoniae D39V [1] | -0.0551

fitness
Settings | partner 1 µg/mL | partner 2 µg/mL | partner 4 µg/mL
B. subtilis 168 [7], first compound 1.25 µg/mL | 0.869 | 0.862 | 0.877
B. subtilis 168 [7], first compound 2.5 µg/mL | 0.852 | 0.738 | 0.868
B. subtilis 168 [7], first compound 5 µg/mL | 0.669 | 0.685 | 0.774
S. aureus DSM 20231 [8], first compound 1.25 µg/mL | 0.929 | 0.939 | 0.925
S. aureus DSM 20231 [8], first compound 2.5 µg/mL | 0.831 | 0.903 | 0.893
S. aureus DSM 20231 [8], first compound 5 µg/mL | 0.641 | 0.674 | 0.689
S. pneumoniae D39V [5], first compound 0.325 µg/mL | 0.983 | ≥ 1 | 0.96
S. pneumoniae D39V [5], first compound 0.65 µg/mL | 0.936 | 0.975 | 0.933

one replicate
Settings | fitness
B. subtilis 168 [7], first compound 1.25 µg/mL, partner 0.5 µg/mL | 0.915
B. subtilis 168 [7], first compound 2.5 µg/mL, partner 0.5 µg/mL | 0.884
B. subtilis 168 [7], first compound 5 µg/mL, partner 0.5 µg/mL | 0.632
S. aureus Newman [6], first compound 1.25 µg/mL, partner 8 µg/mL | 0.911
S. aureus Newman [6], first compound 2.5 µg/mL, partner 8 µg/mL | 0.858
S. aureus Newman [6], first compound 5 µg/mL, partner 8 µg/mL | 0.778
S. pneumoniae D39V [5], first compound 1.3 µg/mL, partner 1 µg/mL | 0.637
S. pneumoniae D39V [5], first compound 1.3 µg/mL, partner 2 µg/mL | 0.679
S. pneumoniae D39V [5], first compound 1.3 µg/mL, partner 4 µg/mL | 0.615

Cc1onc(-c2ccccc2)c1C(=O)N[C@@H]1C(=O)N2[C@@H]1SC(C)(C)[C@@H]2C(=O)O [Oxacillin] + CCN(CC)CCOC(=O)c1ccc(N)cc1 [Procaine]
Settings | Bliss interaction score
B. subtilis 168 [3] | 0.0581
S. aureus DSM 20231 [4] | -0.0703
S. aureus Newman [2] | -0.0416
S. pneumoniae D39V [1] | 0.0938

fitness
Settings | partner 85.5 µg/mL | partner 171 µg/mL | partner 342 µg/mL
B. subtilis 168 [7], first compound 0.002 µg/mL | 0.938 | 0.932 | 0.894
B. subtilis 168 [7], first compound 0.004 µg/mL | 0.966 | 0.913 | 0.911
B. subtilis 168 [7], first compound 0.008 µg/mL | 0.963 | 0.916 | 0.867
S. aureus DSM 20231 [8], first compound 0.0156 µg/mL | 0.782 | 0.916 | 0.852
S. aureus DSM 20231 [8], first compound 0.0312 µg/mL | 0.64 | 0.738 | 0.712
S. aureus DSM 20231 [8], first compound 0.0625 µg/mL | 0.443 | 0.513 | 0.514
S. aureus Newman [6], first compound 0.0312 µg/mL | 0.686 | – | –
S. pneumoniae D39V [5], first compound 0.01 µg/mL | ≥ 1 | ≥ 1 | 0.998
S. pneumoniae D39V [5], first compound 0.02 µg/mL | 0.933 | 0.932 | 0.925
S. pneumoniae D39V [5], first compound 0.04 µg/mL | – | – | 0.497

fitness, B. subtilis 168 [7], one replicate
Settings | first compound 0.075 µg/mL | first compound 0.15 µg/mL | first compound 0.3 µg/mL
partner 85.5 µg/mL | 0.637 | 0.0445 | 0.056
partner 171 µg/mL | 0.535 | 0.0452 | 0.0565
partner 342 µg/mL | 0.577 | 0.041 | 0.0536

Cn1c2cccc(=O)c-2nc2ccccc21 [Pyocyanin] + CN[C@@H]1[C@H](O)[C@H](NC)[C@H]2O[C@@]3(O)C(=O)C[C@@H](C)O[C@H]3O[C@@H]2[C@H]1O [Spectinomycin]
Settings | Bliss interaction score
B. subtilis 168 [3] | -0.0432
S. aureus DSM 20231 [4] | -0.0492
S. aureus Newman [2] | 0.0628
S. pneumoniae D39V [1] | 0.0496

fitness
Settings | partner 2 µg/mL | partner 4 µg/mL | partner 8 µg/mL | partner 16 µg/mL
B. subtilis 168 [7], first compound 1.25 µg/mL | 0.907 | 0.914 | 0.861 | –
B. subtilis 168 [7], first compound 2.5 µg/mL | 0.887 | 0.876 | 0.857 | –
B. subtilis 168 [7], first compound 5 µg/mL | 0.762 | 0.757 | 0.708 | –
S. aureus DSM 20231 [8], first compound 1.25 µg/mL | – | 0.884 | 0.93 | 0.82
S. aureus DSM 20231 [8], first compound 2.5 µg/mL | – | 0.868 | 0.86 | 0.716
S. aureus DSM 20231 [8], first compound 5 µg/mL | – | 0.688 | 0.726 | 0.582
S. aureus Newman [6], first compound 1.25 µg/mL | – | 0.853 | 0.867 | 0.853
S. aureus Newman [6], first compound 2.5 µg/mL | – | 0.761 | 0.766 | 0.697
S. pneumoniae D39V [5], first compound 0.325 µg/mL | – | 0.995 | 0.955 | –
S. pneumoniae D39V [5], first compound 0.65 µg/mL | – | 0.96 | 0.944 | –

fitness, one replicate
Settings | S. aureus DSM 20231 [8] | S. aureus Newman [6] | S. pneumoniae D39V [5]
first compound 0.325 µg/mL, partner 16 µg/mL | – | – | 0.729
first compound 0.65 µg/mL, partner 16 µg/mL | – | – | 0.885
first compound 1.25 µg/mL, partner 32 µg/mL | 0.656 | 0.591 | –
first compound 1.25 µg/mL, partner 64 µg/mL | 0.0503 | 0.11 | –
first compound 1.3 µg/mL, partner 4 µg/mL | – | – | 0.776
first compound 1.3 µg/mL, partner 8 µg/mL | – | – | 0.792
first compound 2.5 µg/mL, partner 32 µg/mL | 0.638 | 0.489 | –
first compound 2.5 µg/mL, partner 64 µg/mL | 0.0416 | 0.0964 | –
first compound 5 µg/mL, partner 32 µg/mL | 0.342 | 0.268 | –
first compound 5 µg/mL, partner 64 µg/mL | 0.0295 | 0.0535 | –
